Data published in patent US4055639A, “Derivatives of N-(2,2-dichlorovinyl) salicylamide and use thereof as bactericides, fungicides and algicides for industry” (Nippon Kayaku Kabushiki Kaisha, priority 1975, dated 1977).
Converted amounts (≈) assume the structure as drawn. Structures can show the parent of a compound that is named as a salt. Where two headings read alike, the source gives them in different places.

What was measured:
green algae = assay: degree of propagation on slime test boards in Waxman's liquid medium; set-up: key: -: no propagation; +: the area of propagation is 1-25% on the slime test boards.; ++: the area of propagation is 26-50% on the slime test boards.; +++: the area of propagation is 51-75% on the slime test boards.; ++++: the area of propagation is 76-100% on the slime test boards; conditions: 0.02 part active compound (10% water soluble concentrate) in 100 parts medium, same method
Description: (§1) Zero point zero two (0.02) part of active compounds in the form of 10% water soluble concentrate which was prepared by Example 11 was added into 100 parts of Waxman's liquid medium. Pieces of wood and iron (hereafter referred to as the slime test boards) were soaked into the Waxman's liquid medium. The bacteria which were gathered from circular water system were inoculated upon the Waxman's liquid medim and incubated at 27°-34° C by shaking culture for 2 days. The degree of propagation of the bacteria on the slime test boards was examined.
(§2) The growth-inhibiting activity of active compounds against the fungi and the green algae was also examined by the same method as mentioned above.
(§3) The degree of propagation of the bacteria, fungi or green algae on the slime test boards is difined in term of the following symbols.

fungi = assay: as above; set-up: key: -: no propagation; +: the area of propagation is 1-25% on the slime test boards.; ++: the area of propagation is 26-50% on the slime test boards.; +++: the area of propagation is 51-75% on the slime test boards.; ++++: the area of propagation is 76-100% on the slime test boards; conditions: 0.02 part active compound (10% water soluble concentrate) in 100 parts medium, same method
Description: as §1, §2, §3

Escherichia coli = assay: minimum inhibitory concentration, glucose bouillon medium dilution method; type: cell-based; conditions: read-out: Minimum inhibitory amount (minimum inhibitory concentration, 100% control)
From the text: (§4) Bactericidal activity and fungicidal activity of the active compounds of the present invention were examined by potato-dextrose agar dilution method, or [2] glucose bouillon medium dilution method. The results are shown in Table 2 below as the minimum inhibitory concentration (the minimum concentration of active compound found to produce 100% control of the test bacteria and fungi).

Staphylococcus aureus = assay: as above; type: cell-based; conditions: read-out: Minimum inhibitory amount (minimum inhibitory concentration, 100% control)
From the text: as §4

Bacillus subtilis = assay: as above; type: cell-based; conditions: read-out: Minimum inhibitory amount (minimum inhibitory concentration, 100% control)
From the text: as §4

Penicillium citrinum = assay: minimum inhibitory concentration, potato-dextrose agar dilution method; type: cell-based; conditions: read-out: Minimum inhibitory amount (minimum inhibitory concentration, 100% control)
From the text: as §4

Aspergillus niger = assay: as above; type: cell-based; conditions: read-out: Minimum inhibitory amount (minimum inhibitory concentration, 100% control)
From the text: as §4

Cladosporium harbarum = assay: as above; type: cell-based; conditions: read-out: Minimum inhibitory amount (minimum inhibitory concentration, 100% control)
From the text: as §4

[1] = test system: Bacteria, fungi and slime; assay: inhibition of bacteria, fungi and slime by water soluble concentrate in circular water systems, pastes or binding agents; conditions: 10-20 ppm in circular water systems; 0.01-0.1% in pastes or binding agents
Description: A water soluble concentrate was prepared as follows:
The above ingredients were mixed. A water soluble concentrate was obtained. A water soluble concentrate containing Compound No. 1, No. 2, No. 5, No. 8, No. 16, No. 19 or No. 22 was prepared by the same method as mentioned above.
Before application, the concentrate was diluted 500-1000 times with water and sprayed on the inside of cotes to prevent the growth of bacteria and fungi.
The solution was added to water in circular water systems to inhibit the growth of slime. The concentration of Compound No. 6 in the water was 10-20 ppm.
An amount of 0.01-0.1% of Compound No. 6 as the solution was added to pastes or binding agents to prevent rottenness of them.

[2] = Method (2) glucose bouillon medium dilution
[3] = Method (1) potato-dextrose agar dilution
[4] = Cladosporium harbarum, Method (1) potato-dextrose agar dilution

| MIC (Escherichia coli; [2]) [µg/mL] | MIC (Staphylococcus aureus; [2]) [µg/mL] | MIC (Bacillus subtilis; [2]) [µg/mL] | MIC (Penicillium citrinum; [3]) [µg/mL] | MIC (Aspergillus niger; [3]) [µg/mL] | MIC (Cladosporium harbarum; [4]) [µg/mL] | inhibition of bacteria, fungi and slime [1] | SMILES | Degree of propagation (green algae) | Degree of propagation (fungi) | MIC (Escherichia coli) [µg/mL] | MIC (Staphylococcus aureus) [µg/mL] | MIC (Bacillus subtilis) [µg/mL] | MIC (Penicillium citrinum) [µg/mL] | MIC (Aspergillus niger) [µg/mL] | MIC (Cladosporium harbarum; Cladosporium) [µg/mL] |
| --- | --- | --- | --- | --- | --- | --- | --- | --- | --- | --- | --- | --- | --- | --- | --- |
| 40 (≈ 139 µM) | 5 (≈ 17.4 µM) | 2.5 (≈ 8.68 µM) | 10 (≈ 34.7 µM) | 10 (≈ 34.7 µM) | 5 (≈ 17.4 µM) |  | CCC(=O)Oc1ccccc1C(=O)NC=C(Cl)Cl [Compound No. 15] | - | - |  |  |  |  |  |  |
| 60 (≈ 225 µM) | 5 (≈ 18.8 µM) | 5 (≈ 18.8 µM) | 10 (≈ 37.5 µM) | 10 (≈ 37.5 µM) | 5 (≈ 18.8 µM) |  | O=C(NC=C(Cl)Cl)c1cc(Cl)ccc1O [Compound No. 1, N-(2',2'-dichlorovinyl)-5-chlorosalicylamide] | - | - |  |  |  |  |  |  |
| 40 (≈ 117 µM) | 2.5 (≈ 7.29 µM) | 2.5 (≈ 7.29 µM) | 5 (≈ 14.6 µM) | 10 (≈ 29.2 µM) | 5 (≈ 14.6 µM) |  | CC(=O)Oc1c(Cl)cc(Cl)cc1C(=O)NC=C(Cl)Cl [compound 27] |  |  |  |  |  |  |  |  |
| 40 (≈ 132 µM) | 2.5 (≈ 8.22 µM) | 5 (≈ 16.4 µM) | 10 (≈ 32.9 µM) | 10 (≈ 32.9 µM) | 10 (≈ 32.9 µM) |  | CCOC(=O)Oc1ccccc1C(=O)NC=C(Cl)Cl [compound 22] |  | + (the area of propagation is 1-25% on the slime test boards.) |  |  |  |  |  |  |
| 60 (≈ 199 µM) | 10 (≈ 33.1 µM) | 5 (≈ 16.5 µM) | 10 (≈ 33.1 µM) | 10 (≈ 33.1 µM) | 5 (≈ 16.5 µM) |  | CCCC(=O)Oc1ccccc1C(=O)NC=C(Cl)Cl [compound 16] |  | - |  |  |  |  |  |  |
|  |  |  |  |  |  | inhibited for a long time | O=C(NC=C(Cl)Cl)c1cc(Cl)ccc1O [Compound No. 6, sodium salt of N-(2',2'-dichlorovinyl)-5-chlorosalicylamide] |  |  |  |  |  |  |  |  |
| 60 (≈ 217 µM) | 5 (≈ 18 µM) | 5 (≈ 18 µM) | 10 (≈ 36.1 µM) | 10 (≈ 36.1 µM) | 10 (≈ 36.1 µM) |  | O=C(NC=C(Cl)Cl)c1cccc([N+](=O)[O-])c1O [compound 14] |  |  |  |  |  |  |  |  |
| 40 (≈ 130 µM) | 5 (≈ 16.2 µM) | 5 (≈ 16.2 µM) | 10 (≈ 32.4 µM) | 10 (≈ 32.4 µM) | 5 (≈ 16.2 µM) |  | O=C(CCl)Oc1ccccc1C(=O)NC=C(Cl)Cl [compound 19] | - | - |  |  |  |  |  |  |
| 40 (≈ 146 µM) | 5 (≈ 18.2 µM) | 2.5 (≈ 9.12 µM) | 10 (≈ 36.5 µM) | 10 (≈ 36.5 µM) | 5 (≈ 18.2 µM) |  | CC(=O)Oc1ccccc1C(=O)NC=C(Cl)Cl [Compound No. 2, O-acetyl-N-(2,2-dichlorovinyl) salicylamide] | - | - |  |  |  |  |  |  |
| 60 (≈ 244 µM) | 10 (≈ 40.6 µM) | 10 (≈ 40.6 µM) | 20 (≈ 81.3 µM) | 20 (≈ 81.3 µM) | 10 (≈ 40.6 µM) |  | COc1ccccc1C(=O)NC=C(Cl)Cl [compound 24] |  |  |  |  |  |  |  |  |
|  |  |  |  |  |  |  | CNC(=O)Oc1ccccc1C(=O)NC=C(Cl)Cl [Compound No. 4, O-(N'-methylcarbamoyl)-N-(2,2-dichlorovinyl) salicylamide] |  |  | 60 (≈ 208 µM) | 10 (≈ 34.6 µM) | 10 (≈ 34.6 µM) | 10 (≈ 34.6 µM) | 20 (≈ 69.2 µM) | 5 (≈ 17.3 µM) |
| 60 (≈ 207 µM) | 10 (≈ 34.5 µM) | 10 (≈ 34.5 µM) | 20 (≈ 68.9 µM) | 10 (≈ 34.5 µM) | 10 (≈ 34.5 µM) |  | COC(=O)Oc1ccccc1C(=O)NC=C(Cl)Cl [Compound No. 3, O-methoxycarbonyl-N-(2,2-dichlorovinyl) salicylamide] |  |  |  |  |  |  |  |  |
| 10 (≈ 32.4 µM) | 1.3 (≈ 4.21 µM) | 1.3 (≈ 4.21 µM) | 2.5 (≈ 8.1 µM) | 2.5 (≈ 8.1 µM) | 2.5 (≈ 8.1 µM) |  | CC(=O)Oc1ccc(Cl)cc1C(=O)NC=C(Cl)Cl [Compound No. 5, O-acetyl-N-(2',2'-dichlorovinyl)-5-chlorosalicylamide] | - | - |  |  |  |  |  |  |
| 60 (≈ 193 µM) | 5 (≈ 16.1 µM) | 5 (≈ 16.1 µM) | 10 (≈ 32.2 µM) | 20 (≈ 64.3 µM) | 10 (≈ 32.2 µM) |  | O=C(NC=C(Cl)Cl)c1cc(Br)ccc1O [compound 13] |  |  |  |  |  |  |  |  |
| 40 (≈ 132 µM) | 5 (≈ 16.5 µM) | 5 (≈ 16.5 µM) | 10 (≈ 33.1 µM) | 10 (≈ 33.1 µM) | 10 (≈ 33.1 µM) |  | CC(C)C(=O)Oc1ccccc1C(=O)NC=C(Cl)Cl [compound 17] |  |  |  |  |  |  |  |  |
| 60 (≈ 175 µM) | 10 (≈ 29.2 µM) | 5 (≈ 14.6 µM) | 10 (≈ 29.2 µM) | 10 (≈ 29.2 µM) | 10 (≈ 29.2 µM) |  | O=C(NC=C(Cl)Cl)c1ccccc1OC(=O)C(Cl)Cl [compound 20] |  |  |  |  |  |  |  |  |
| 40 (≈ 120 µM) | 5 (≈ 15.1 µM) | 5 (≈ 15.1 µM) | 10 (≈ 30.1 µM) | 10 (≈ 30.1 µM) | 10 (≈ 30.1 µM) |  | CC(C)COC(=O)Oc1ccccc1C(=O)NC=C(Cl)Cl [compound 23] |  |  |  |  |  |  |  |  |
| 40 (≈ 133 µM) | 5 (≈ 16.6 µM) | 5 (≈ 16.6 µM) | 10 (≈ 33.2 µM) | 10 (≈ 33.2 µM) | 5 (≈ 16.6 µM) |  | O=C(NC=C(Cl)Cl)c1cc(Cl)cc(Cl)c1O [compound 26] |  |  |  |  |  |  |  |  |
| 80 (≈ 325 µM) | 10 (≈ 40.6 µM) | 10 (≈ 40.6 µM) | 20 (≈ 81.3 µM) | 20 (≈ 81.3 µM) | 20 (≈ 81.3 µM) |  | Cc1cccc(C(=O)NC=C(Cl)Cl)c1O [compound 12] |  |  |  |  |  |  |  |  |
